Experimental data reported in publication PMC10855552, “Hydrophilic Reduction-Resistant Spin Labels of Pyrrolidine and Pyrroline Series from 3,4-Bis-hydroxymethyl-2,2,5,5-tetraethylpyrrolidine-1-oxyl” (International Journal of Molecular Sciences, 2024).
Read-outs that look alike come from different tables or passages of the source.

Legend:
[1] = Kinetics of nitroxide reduction with ascorbate in the presence of glutathione, followed by EPR; type: physicochemical; details: ascorbate 100–300 mM, glutathione 5 mM, 5 mM phosphate-citrate-borate buffer, pH 7.4, 25 °C; values are kred × 10^4
Experimental: (§1) For kinetic measurements in water, stock solutions of nitroxide, ascorbic acid and glutathione in phosphate-citrate-borate buffer (5 mM, pH 7.4) were prepared, and pH was adjusted to 7.4 with NaOH or HCl. All the solutions were deoxygenated with argon, carefully and quickly mixed in a small tube to attain final concentrations (nitroxide, 0.2–04 mM; GSH, 5 mM; and ascorbate, 100–300 mM) and were placed into an EPR capillary (50 μL). The choice of acsorbate concentration is a compromise between the low reduction rate, which requires very long experiment time and deviations of the kinetics from linearity at higher ascorbate concentrations due to ionic strength effects. Since the ascorbate oxidation is slow under these conditions, the 5 mM concentration of GSH was sufficient to suppress the reverse reaction of ascorbate radical with the hydroxylamine, because the rate of the ascorbate radical formation was low. The increase in GSH concentration produced little effect on the final reduction rate constant values. The capillary was sealed on both sides and placed into the EPR resonator. The decay of amplitude of the low-field component of the EPR spectrum was followed to obtain the kinetics. The initial part of the decay curves (up to 20 min) was used for fitting. Kinetics of the decay was fitted to a monoexponential function to calculate the first-order rate constants. Then, these constants were divided by the concentration of ascorbic acid to calculate the second-order reaction constants. Partition coefficients in a water–octanol mixture were estimated from the amplitudes of the EPR spectra of a nitroxide in water after extensive shaking with different portions of added octanol and separation using centrifugation.

[2] = Partition in octanol/aqueous 5 mM phosphate-citrate-borate buffer pH 7.4, estimated from EPR amplitudes; type: physicochemical; details: for partition coefficient (Kp): octanol/aqueous 5 mM phosphate-citrate-borate buffer pH 7.4; for partition octanol/buffer, result in words: after shaking with buffer pH 7.4
Experimental: Partition in octanol-water mixtures for ionizable compounds may depend on pH, and the pH changes may result from addition of the compound. Therefore, phosphate-citrate-borate buffer (5 mM, pH 7.4) was used for Kp measurements to make the partition closer to physiological conditions. […] Although monoamino derivatives 11 and 13 mainly exist in protonated form at pH 7.4, they still remain lipophilic and, therefore, should permeate cells. Amino groups are known to provide higher retention/intracellular accumulation due to transmembrane potential or ion-trapping effect. This effect was exploited in design of nitroxide contrast agents for MRI and radioprotectors. Cellular accumulation of spin labels like 11 and 13 may help to increase efficacy spin labeling using CuAAC or SPAAC.
as §1

[3] = pH dependence of EPR spectra (titration), pK by fitting; type: physicochemical; details: for pK (pH dependence of EPR spectra): amino group protonation, 5 mM phosphate-citrate-borate buffer, 25 °C; for pK, first protonation (free base to monocation): transition at high pH; for pK, first protonation (free base to monocation) / pKa, second protonation (monocation to dication): EPR titration; for pKa, second protonation (monocation to dication): transition at low pH
Experimental: The pH-dependences of the EPR spectra were investigated using the 0.2 mM solutions of the nitroxides in 5 mM phosphate-citrate-borate buffer on a Bruker ER-200D-SRC spectrometer in 50 µL glass capillary for 0.2 mM radical solutions. Spectrometer settings: frequency, 9.87 GHz; microwave power, 5.0 mW; modulation amplitude, 0.1 mT; time constant, 50–100 ms; and conversion time, 50.12 ms. Small portions of 0.1–1 N HCl or 0.1–1 N NaOH were added to the stirred solution of a nitroxide in buffer at 25 °C, while the pH was controlled using pH-meter. After the equilibrium was established, the samples were taken from the solution and the EPR spectra were measured. The experimental points were fitted with the Equation (1) to obtain the pKa values. (1) aN(pH)=(p1+p2×10^pK1−pH+p3×10^pK1+pK2−2×pH)/1+10^pK1−pH+10^pK1+pK2−2×pH

[4] = Solubility in water; type: physicochemical
[5] = values are kred × 10^4; cited from earlier work

Compound | kred × 10^4 (rate of reduction with ascorbate) [1] [M^−1 s^−1] | partition coefficient (Kp) [2] | pK (pH dependence of EPR spectra) [3] | further results
CCC1(CC)C(CN)C(CN=[N+]=[N-])C(CC)(CC)N1[O] (stereo not shown) [13a, 3-(Aminomethyl)-4-(azidomethyl)-2,2,5,5-tetraethylpyrrolidin-1-oxyl] | 6.3 ± 0.9 | 350 ± 35 | ca. 9 | 
CCC1(CC)C(CN)C(CN(C)C)C(CC)(CC)N1[O] (stereo not shown) [14a, 3-(Aminomethyl)-4-((dimethylamino)methyl)-2,2,5,5-tetraethylpyrrolidin-1-oxyl] | 6.4 ± 1.0 |  |  | pK, first protonation (free base to monocation) [3]: ca. 11; pKa, second protonation (monocation to dication) [3]: ca. 3; pKa, second protonation (monocation to dication) ([3]; listed as N,N-dimethyl-3,4-bis-(aminomethyl)-2,2,5,5-tetraethylpyrrolidine-1-oxyl): 3
CCC1(CC)C(CN=[N+]=[N-])C(Cn2nnc(C(=O)[O-])c2C(=O)O)C(CC)(CC)N1[O].[Na+] (stereo not shown) [compound 20, 3-(Azidomethyl)-4-((4,5-dicarboxy-1H-1,2,3-triazol-1-yl)methyl)-2,2,5,5-tetraethylpyrrolidin-1-oxyl monosodium salt] | 5.9 ± 1.2 |  |  | partition octanol/buffer, result in words [2]: not detected in octanol
CCC1(CC)C(CO)C(CN=[N+]=[N-])C(CC)(CC)N1[O] (stereo not shown) [compound 5, 3-(Azidomethyl)-2,2,5,5-tetraethyl-4-(hydroxymethyl)pyrrolidin-1-oxyl] |  |  |  | solubility in water [4]: poorly soluble in water
CCC1(CC)C(CO)C(CNC(=O)OC(C)(C)C)C(CC)(CC)N1[O] (stereo not shown) [compound 8, 3-(((tert-Butoxycarbonyl)amino)methyl)-2,2,5,5-tetraethyl-4-(hydroxymethyl)pyrrolidin-1-oxyl] | 6.0 ± 2.0 |  |  | 
CCC1(CC)C(CN=[N+]=[N-])=C(CN(C)C)C(CC)(CC)N1[O] [11b, 3-(Azidomethyl)-4-((dimethylamino)methyl)-2,2,5,5-tetraethyl-2,5-dihydro-1H-pyrrol-1-oxyl] | 15 ± 4.0 | 15 ± 1 | ca. 9 | 
CCC1(CC)C(CNC(=O)OC(C)(C)C)C(COS(C)(=O)=O)C(CC)(CC)N1[O] (stereo not shown) [compound 9, 3-(((tert-Butoxycarbonyl)amino)methyl)-2,2,5,5-tetraethyl-4-(((methylsulfonyl)oxy)methyl)pyrrolidin-1-oxyl] | 3.0 ± 1.0 |  |  | 
CCC1(CC)C(CN(C)C)=C(CN2C(=O)C=CC2=O)C(CC)(CC)N1[O] [15b, 3-((Dimethylamino)methyl)-4-((2,5-dioxo-2,5-dihydro-1H-pyrrol-1-yl)methyl)-2,2,5,5-tetraethyl-2,5-dihydro-1H-pyrrol-1-oxyl] |  |  | ca. 9 | 
CCC1(CC)C(CN(C)C)C(CN2C(=O)C=CC2=O)C(CC)(CC)N1[O] (stereo not shown) [15a, 3-((Dimethylamino)methyl)-4-((2,5-dioxo-2,5-dihydro-1H-pyrrol-1-yl)methyl)-2,2,5,5-tetraethylpyrrolidin-1-oxyl] |  |  | ca. 9 | 
CCC1(CC)C(CO)C(CO)C(CC)(CC)N1[O] (stereo not shown) [compound 1, 3,4-bis-hydroxymethyl-2,2,5,5-tetraethylpyrrolidine-1-oxyl] |  | 41 ± 2 |  | kred × 10^4 (rate of reduction with ascorbate) [5]: 3.3 ± 0.8 [26] M^−1 s^−1
3-((2,5-Dioxo-2,5-dihydro-1H-pyrrol-1-yl)methyl)-2,2,5,5-tetraethyl-4-((trimethylammonio)methyl)-2,5-dihydro-1H-pyrrol-1-oxyl monoiodide [16b] |  |  |  | partition octanol/buffer, result in words [2]: not detected in octanol
3-(Azidomethyl)-2,2,5,5-tetraethyl-4-((trimethylammonio)methyl)-2,5-dihydro-1H-pyrrol-1-oxyl monoiodide [17b] | 16 ± 3.0 |  |  | partition octanol/buffer, result in words [2]: not detected in octanol
CCC1(CC)C(CN=[N+]=[N-])C(CNC(=O)OC(C)(C)C)C(CC)(CC)N1[O] (stereo not shown) [compound 10, 3-(Azidomethyl)-4-((tert-butoxycarbonylamino)methyl)-2,2,5,5-tetraethylpyrrolidin-1-oxyl] | 3.0 ± 1.0 |  |  | 
CCC1(CC)C(CN)C(CO)C(CC)(CC)N1[O] (stereo not shown) [compound 6, 3-(Aminomethyl)-2,2,5,5-tetraethyl-4-(hydroxymethyl)pyrrolidin-1-oxyl] |  |  | ca. 9 | 
CCC1(CC)C(CO)=C(CO)C(CC)(CC)N1[O] [compound 22, 2,2,5,5-tetraethyl-3,4-bis(hydroxymethyl)-2,5-dihydro-1H-pyrrol-1-oxyl, reference compound] | 3.4 ± 0.1 | 37 ± 2 |  | 
CCC1(CC)C(CO)C(CN2C(=O)C=CC2=O)C(CC)(CC)N1[O] (stereo not shown) [compound 7, 3-((2,5-Dioxo-2,5-dihydro-1H-pyrrol-1-yl)methyl)-2,2,5,5-tetraethyl-4-(hydroxymethyl)pyrrolidin-1-oxyl] |  | 84 ± 2 |  | solubility in water [4]: poorly soluble in water
CCC1(CC)C(CN)=C(CN(C)C)C(CC)(CC)N1[O] [14b, 3-(Aminomethyl)-4-((dimethylamino)methyl)-2,2,5,5-tetraethyl-2,5-dihydro-1H-pyrrol-1-oxyl] | 8 ± 1.0 | 7 ± 0.3 |  | pK, first protonation (free base to monocation) [3]: ca. 11; pKa, second protonation (monocation to dication) [3]: ca. 3
3-(Azidomethyl)-2,2,5,5-tetraethyl-4-((trimethylammonio)methyl)pyrrolidin-1-oxyl monoiodide [17a] | 3.0 ± 1.0 |  |  | partition octanol/buffer, result in words [2]: not detected in octanol
CCC1(CC)CC(C(=O)O)C(CC)(CC)N1[O] (stereo not shown) [compound 21, 3-carboxy-2,2,5,5-tetraethylpyrrolidine-1-oxyl, reference compound] |  | 270 |  | kred × 10^4 (rate of reduction with ascorbate) [5]: 12.5 ± 0.3 [22] M^−1 s^−1
CCC1(CC)C(CN=[N+]=[N-])C(CN(C)C)C(CC)(CC)N1[O] (stereo not shown) [11a, 3-(Azidomethyl)-4-((dimethylamino)methyl)-2,2,5,5-tetraethylpyrrolidin-1-oxyl] | 4.0 ± 1.0 | 52 ± 5 | ca. 9 | 
3-((2,5-Dioxo-2,5-dihydro-1H-pyrrol-1-yl)methyl)-2,2,5,5-tetraethyl-4-((trimethylammonio)methyl)pyrrolidin-1-oxyl monoiodide [16a] |  |  |  | partition octanol/buffer, result in words [2]: not detected in octanol
CCC1(CC)C(CN)=C(CN=[N+]=[N-])C(CC)(CC)N1[O] [13b, 3-(Aminomethyl)-4-(azidomethyl)-2,2,5,5-tetraethyl-2,5-dihydro-1H-pyrrol-1-oxyl] | 7.6 ± 0.3 | 45 ± 2 | ca. 9 | 
